We go through 1 substance from article PMC8125234, “Cardiolipin Stabilizes and Increases Catalytic Efficiency of Carnitine Palmitoyltransferase II and Its Variants S113L, P50H, and Y479F” (International Journal of Molecular Sciences, 2021).

In the assay the target is T1, CPT II variant Y479F (Homo sapiens, UniProt P23786, Y479F).
T1 construct: made in house; host or cells: Escherichia coli BL21Gold DE
T1 sequence (P23786 26-658 Y479F): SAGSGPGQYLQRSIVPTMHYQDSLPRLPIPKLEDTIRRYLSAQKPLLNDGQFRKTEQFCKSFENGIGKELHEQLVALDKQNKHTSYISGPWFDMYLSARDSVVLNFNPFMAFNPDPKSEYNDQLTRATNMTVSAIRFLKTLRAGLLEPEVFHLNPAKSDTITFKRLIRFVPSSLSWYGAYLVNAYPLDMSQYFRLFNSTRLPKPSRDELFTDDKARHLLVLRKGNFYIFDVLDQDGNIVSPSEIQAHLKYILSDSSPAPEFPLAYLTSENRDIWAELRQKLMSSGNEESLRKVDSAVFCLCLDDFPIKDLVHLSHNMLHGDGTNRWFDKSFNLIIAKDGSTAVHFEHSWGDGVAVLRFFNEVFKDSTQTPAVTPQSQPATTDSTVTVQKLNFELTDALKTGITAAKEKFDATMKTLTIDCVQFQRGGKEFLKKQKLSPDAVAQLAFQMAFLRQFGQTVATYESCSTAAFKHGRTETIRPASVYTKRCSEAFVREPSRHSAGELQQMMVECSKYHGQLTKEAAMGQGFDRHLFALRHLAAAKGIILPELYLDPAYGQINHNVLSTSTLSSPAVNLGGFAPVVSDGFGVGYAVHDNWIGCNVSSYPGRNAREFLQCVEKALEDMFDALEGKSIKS
Kind of assay: Lipid binding assay (membrane lipid strips). Conditions: 0.4 mg enzyme, 100 pmol lipid spots. As for the experimental part: Direct interaction of CPT II WT and variants with phospholipids of the mitochondrial membrane was assessed using membrane lipid strips (Echelon Biosciences, Salt Lake City, Utah, USA). The membrane was spotted with 100 pmol of various cell membrane lipids. The assay was performed following manufacturer’s instructions with some modifications explained in the following. At first, the membrane was washed twice in phosphate buffered saline (PBS). After 1 h incubation with blocking solution (3% BSA fatty acid-free in PBS) at room temperature, the membrane was incubated with purified CPT II WT or variant (final amount 0.4 mg protein) for 2 h at 4 °C. After three washing steps, a-His-Probe (H3) mouse monoclonal antibody (Santa Cruz Biotech, Santa Cruz, CA, USA, 1:1000 dilution in PBS containing 3% BSA) was added to the membrane over night at 4 °C. The membrane was washed three times with PBS and incubated with mouse IgG horseradish peroxidase-linked whole antibody (from sheep, Amersham, Little Chalfont, Buckinghamshire, UK) for 1 h at 4 °C. The interaction was visualized by ECL Western blotting detection reagents (Amersham, Little Chalfont, Buckinghamshire, UK).

In the case of Cardiolipin [CL], the “Signal for interaction on membrane lipid strips” value is on record as “clearly proven”.
